The supplement of paper PMC10307832

Experiments:
Assay in all cases: relative viability (nuclei count vs DMSO), 5 days (fraction); higher = more cells survive
[1] = compound: Cc1ccc2nc(NCCN)c3ncc(C)n3c2c1 + Cc1cc(Nc2cc(N3CCN(C)CC3)nc(Sc3ccc(NC(=O)C4CC4)cc3)n2)n[nH]1 [Tozasertib] (partner 0.1 µM)
Summary of the method: (§1)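 Five library-drug doses in √10 steps were combined with a fixed anchor-drug dose, or a single drug was given alone, by pin tool to lung cancer cell lines in 1536-well plates the day after seeding. Nuclei were stained and counted after 5 days. Relative viability is the nuclei count in treated wells over that in vehicle wells, taken as the median of duplicate plates.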

[2] = compound: O=C(/C=C/c1ccccc1)NC(NC(=S)Nc1cccc2cccnc12)C(Cl)(Cl)Cl [Salubrinal] + CC1(C)CCC(c2ccc(Cl)cc2)=C(CN2CCN(c3ccc(C(=O)NS(=O)(=O)c4ccc(N[C@H](CCN5CCOCC5)CSc5ccccc5)c(S(=O)(=O)C(F)(F)F)c4)cc3)CC2)C1 [Navitoclax] (partner 0.5 µM)
Summary of the method: as §1

[3] = compound: O=C(/C=C/c1ccccc1)NC(NC(=S)Nc1cccc2cccnc12)C(Cl)(Cl)Cl [Salubrinal] + C[C@@H](Oc1cc(-c2cnn(C3CCNCC3)c2)cnc1N)c1c(Cl)ccc(F)c1Cl [Crizotinib] (partner 1 µM)
Summary of the method: as §1

[4] = compound: O=C(/C=C/c1ccccc1)NC(NC(=S)Nc1cccc2cccnc12)C(Cl)(Cl)Cl [Salubrinal] + Nc1nc2[nH]cc(CCc3ccc(C(=O)N[C@@H](CCC(=O)O)C(=O)O)cc3)c2c(=O)[nH]1 [Pemetrexed] (partner 0.2 µM)
Summary of the method: as §1

Cell Line	relative viability ([1]; first compound 0.04 µM)	relative viability ([1]; first compound 0.1265 µM)	relative viability ([1]; first compound 0.4 µM)	relative viability ([1]; first compound 1.265 µM)	relative viability ([1]; first compound 4 µM)	relative viability ([2]; first compound 0.08 µM)	relative viability ([2]; first compound 0.253 µM)	relative viability ([2]; first compound 0.8 µM)	relative viability ([2]; first compound 2.53 µM)	relative viability ([2]; first compound 8 µM)	relative viability ([3]; first compound 0.08 µM)	relative viability ([3]; first compound 0.253 µM)	relative viability ([3]; first compound 0.8 µM)	relative viability ([3]; first compound 2.53 µM)	relative viability ([3]; first compound 8 µM)	relative viability ([4]; first compound 0.08 µM)	relative viability ([4]; first compound 0.253 µM)	relative viability ([4]; first compound 0.8 µM)	relative viability ([4]; first compound 2.53 µM)	relative viability ([4]; first compound 8 µM)
NCI-H2126	0.955	0.857	0.869	0.852	0.734	0.897	0.913	0.914	0.808	0.867	1.14	0.961	1.12	1.01	1.03	0.676	0.683	0.747	0.708	0.626
HOP-62	0.383	0.379	0.396	0.367	0.402	1.04	0.822	1.09	1.01	0.958	1.04	0.965	1.21	0.914	0.26	0.244	0.267	0.317	0.315	0.331
CAL-12T	0.288	0.353	0.376	0.291	0.269	1.29	0.952	1.21	1.09	1.06	0.661	0.484	0.806	0.48	0.446	1.4	0.754	1.46	1.07	1.21
NCI-H520	0.476	0.458	0.371	0.424	0.405	1.16	1.04	1.32	1.11	1.18	0.816	0.489	0.771	0.663	0.681	0.762	0.523	0.777	0.716	0.734
NCI-H1755	0.552	0.565	0.536	0.511	0.524	1.04	0.983	0.928	1.05	0.969	0.991	0.738	1	0.874	0.917	0.379	0.513	0.401	0.638	0.395
NCI-H2023	0.333	0.395	0.361	0.32	0.251	1.05	0.733	0.96	1.01	0.932	0.674	0.672	0.68	0.635	0.614	0.265	0.198	0.292	0.225	0.178
NCI-H2009	0.754	0.725	0.72	0.734	0.541	1.16	1.18	1.19	1.17	1.07	1.02	0.972	0.955	0.983	0.976	1.08	0.928	1.08	1.02	0.965
